# Test: recombinant barcode read abundance after kanamycin selection (control-corrected) (log10(CPM+1)); higher = more efficient recombination; sequences stand for … in AGTGCAGAGAAAATCGGCCAGTTTTCTCTGCCTGCAGTCCGCATGCCGT…AGATTTATGCAGCGGACTGCCTTTCTCCCAAAGTGATAAACCGGACAGTATCATGGACCGGTTTTCCCGGTAATCCGTATTTGCAAGGTTGGTTTCACT; site = the 11-nt target
# Method in brief: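 Recombination efficiency in this pooled E. coli screen uses counts per million of barcodes at recombinant junctions, averaged and corrected against the control. The reported form is log10(CPM+1). Two replicates were plated on chloramphenicol/ampicillin LB agar as control and two on chloramphenicol/ampicillin/kanamycin with 0.1 mM IPTG.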
# 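Further: IS621 recombinase and bridge RNA in Escherichia coli cells.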
row,Sequence,recombinant barcode read abundance (log10)
1,AGTTCTCCTTGGGTTCTAACCTGTTGCCT (site GGTTCTCCTAG),0.207
2,GCTCGTGCTTGGGTTCTAACCTGTTGCCT (site GCCCGTGCTAG),0.278
3,GCGGGGTCTTGGGTTCTAACCTGTTGCCT (site ACGGGGTCTAG),0.786
4,AGCGTTGCTTGGGTTCTAACCTGTTGCCT (site AGCGTTGCTAG),1.05
5,CTAATACCTTGGGTTCTAACCTGTTGCGT (site CTAATACCTAC),1.04
6,CATGCGCCTTGGGTTCTAACCTGTTGCGG (site CATGTGTCTCC),0.0282
7,TAGAAGACTTGGGTTCTAACCTGTTGCTC (site TAGAAGACTGA),1.44
8,TGGCGCTCTTGGGTTCTAACCTGTTGCCT (site TGGCGCTCTAG),0.457
9,CTAAGCTCTTGGGTTCTAACCTGTTGCCT (site GTAAGCTCTAG),0.0807
10,CGAATCGCTTGGGTTCTAACCTGTTGCCT (site CGAATCTCTAG),0.084
11,CAAATGTCTTGGGTTCTAACCTGTTGCCT (site CAAATGTCTAG),1.1
12,TACGCTCCTTGGGTTCTAACCTGTTGCTT (site TACGCTCCTAG),0.0812
13,TATTATACTTGGGTTCTAACCTGTTGCAT (site TATTATACTAA),0.0319
14,TAGAAGACTTGGGTTCTAACCTGTTGCTC (site TAGAAGACTCA),0.178
15,TATTATACTTGGGTTCTAACCTGTTGCGT (site TATTATACTAT),0.16
16,ACGTCAACTTGGGTTCTAACCTGTTGCCT (site ACCTCAACTAG),0.454
17,CTCTGGGCTTGGGTTCTAACCTGTTGCCT (site CTCTAGGCTAG),0.179
18,CACGCATCTTGGGTTCTAACCTGTTGCCT (site CACGCATCTAG),0.822
19,CTAAGAACTTGGGTTCTAACCTGTTGCTT (site CTAAGAACTAT),0.086
20,ATCAAGCCTTGGGTTCTAACCTGTTGCTT (site ATCAAGCCTAA),0.102
21,CCGGGGTCTTGGGTTCTAACCTGTTGCCT (site GCGGGGTCTAG),0.0665
22,TATTCTACTTGGGTTCTAACCTGTTGCGC (site TATTCTACTAC),0.0305

row,Sequence,recombinant barcode read abundance (log10)
1,GAGAGATCTTGGGTTCTAACCTGTTGCCT (site GAGAAATCTAG),0.749
2,ATCGGACCTTGGGTTCTAACCTGTTGCCT (site ATCGGACCTAG),1.23
3,TCGGAGTCTTGGGTTCTAACCTGTTGCCT (site TCGGAGTCTAC),1.06
4,CTAAGCTCTTGGGTTCTAACCTGTTGCTC (site CTAAGCTCTGA),1.03
5,AAGAAAGCTTGGGTTCTAACCTGTTGCCT (site AAGAGAGCTAG),0.113
6,CGGGCCTCTTGGGTTCTAACCTGTTGCTT (site CGGGCCTCTGA),0.469
7,CTCTATACTTGGGTTCTAACCTGTTGCCA (site CTCTAGACTTG),0.511
8,CCTGGGACTTGGGTTCTAACCTGTTGCGT (site CCTGGGACTTC),0.0691
9,TAGCCATCTTGGGTTCTAACCTGTTGCCT (site TAGCCATCTAG),0.121
10,CGCCACCCTTGGGTTCTAACCTGTTGCCT (site CGCCACCCTAG),0.165
11,TGTCAATCTTGGGTTCTAACCTGTTGCCT (site TGTCAACCTAG),0.061
12,CCAATCTCTTGGGTTCTAACCTGTTGCCT (site CCAATCTCTAG),0.276
13,GCAAGCTCTTGGGTTCTAACCTGTTGCTA (site GCAAGCTCTTA),1.3
14,GCTGTATCTTGGGTTCTAACCTGTTGCCT (site GCTGTATCTAG),0.612
15,ACCGCTCCTTGGGTTCTAACCTGTTGCCT (site AACGCTCCTAG),0.0208
16,GCTCCTCCTTGGGTTCTAACCTGTTGCAT (site ATAGAGTCTCG),0.0486
17,GTAGAGTCTTGGGTTCTAACCTGTTGCCT (site GTAGAGTCTAG),2.84
18,AGGCTGTCTTGGGTTCTAACCTGTTGCCT (site AGGCTGCCTAG),0.613
19,GGGAAGACTTGGGTTCTAACCTGTTGCCT (site GGTAAGACTAG),0.333
20,GCGGTATCTTGGGTTCTAACCTGTTGCCT (site GCGGTATCTAG),1.21
21,TAGTACCCTTGGGTTCTAACCTGTTGCAA (site TAGTACCCTCT),0.104
22,TAGGTCCCTTGGGTTCTAACCTGTTGCAT (site TAGGTGCCTAT),0.0967

row,Sequence,recombinant barcode read abundance (log10)
1,CTGTGGACTTGGGTTCTAACCTGTTGCAG (site CTGTGGACTCT),1.13
2,AGGGCATCTTGGGTTCTAACCTGTTGCCT (site AGGGCATCTAG),0.122
3,GGTATGTCTTGGGTTCTAACCTGTTGCTG (site GGTATGTCTCA),0.857
4,GTGCTCGCTTGGGTTCTAACCTGTTGCCT (site GTGCTCGCTAG),1.87
5,CGCAAATCTTGGGTTCTAACCTGTTGCCT (site CGTAAATCTAG),0.166
6,AATAAGTCTTGGGTTCTAACCTGTTGCCT (site ATTAAGTCTAG),0.122
7,TATACAGCTTGGGTTCTAACCTGTTGCCT (site TAAACAGCTAG),0.156
8,AGGACAACTTGGGTTCTAACCTGTTGCCT (site AGAACAACTAG),0.106
9,GTTTGCCCTTGGGTTCTAACCTGTTGCTT (site GTTTGACCTAA),0.0376
10,CGTACGACTTGGGTTCTAACCTGTTGCAT (site CGTGCGACTAT),0.236
11,CAGAGCTCTTGGGTTCTAACCTGTTGCCG (site AGACAGACTAC),0.078
12,TGATATGCTTGGGTTCTAACCTGTTGCCT (site TGAGATGCTAG),0.0846
13,GTATGACCTTGGGTTCTAACCTGTTGCCT (site GTATGACCTAG),1.86
14,GGGTCCACTTGGGTTCTAACCTGTTGCGT (site GGGTCCACTAA),0.239
15,CCTAAGCCTTGGGTTCTAACCTGTTGCGT (site CCTAACCCTAC),0.977
16,GCGCGCCCTTGGGTTCTAACCTGTTGCGG (site GCGCGCCCTCC),1.63
17,AGACGTCCTTGGGTTCTAACCTGTTGCTT (site AGACCTCCTAA),0.162
18,AATGGGACTTGGGTTCTAACCTGTTGCTG (site AATGGGACTTC),1.55
19,TACTCCGCTTGGGTTCTAACCTGTTGCCT (site TACTCCGCTAG),1.02
20,TGAAGTCCTTGGGTTCTAACCTGTTGCGG (site TGAAGTCCTCC),1.25
21,CCTGGGACTTGGGTTCTAACCTGTTGCGT (site CCTGGGACTAC),1.31
22,TGTTCAGCTTGGGTTCTAACCTGTTGCCT (site TGTTCAGCTAG),0.066

row,Sequence,recombinant barcode read abundance (log10)
1,GGGAACCCTTGGGTTCTAACCTGTTGCTT (site GGGAACCCTCA),0.386
2,CGGCGTCCTTGGGTTCTAACCTGTTGCTA (site CGGTGTCCTTA),0.42
3,GAAAATCCTTGGGTTCTAACCTGTTGCCT (site GAAAATCCTAG),0.304
4,TGTCTACCTTGGGTTCTAACCTGTTGCCT (site TGTCTATCTAG),0.653
5,TCGCACCCTTGGGTTCTAACCTGTTGCGA (site TCGTACCCTTC),0.514
6,TAAGACCCTTGGGTTCTAACCTGTTGCCT (site TAAGACCCTAG),2.33
7,TCGGGATCTTGGGTTCTAACCTGTTGCCT (site ACGGGATCTAG),0.365
8,TAGCTCACTTGGGTTCTAACCTGTTGCGG (site TAGCTCACTCC),1.3
9,TGCCGCTCTTGGGTTCTAACCTGTTGCCT (site TGACGCTCTAG),1.35
10,GTAGTGTCTTGGGTTCTAACCTGTTGCTA (site GTAGTGTCTTA),2.37
11,ATCTTAGCTTGGGTTCTAACCTGTTGCCT (site ATCTTAACTAG),0.0917
12,TGTCAAACTTGGGTTCTAACCTGTTGCCT (site TGTCAATCTAG),0.0654
13,GCTGCTCCTTGGGTTCTAACCTGTTGCGT (site GCTGCTCCTAC),1.82
14,TGTCTACCTTGGGTTCTAACCTGTTGCCT (site TGTCTACCTAG),0.191
15,AAGCGTGCTTGGGTTCTAACCTGTTGCCT (site AAGCGTGCTAG),1.7
16,ATAAGACCTTGGGTTCTAACCTGTTGCCT (site ATAAGACCTAG),2.24
17,TCTTGGACTTGGGTTCTAACCTGTTGCTG (site TCTTGGACTGA),0.174
18,GCCGAGACTTGGGTTCTAACCTGTTGCCT (site GCCGACACTAG),0.0133
19,TAGCATACTTGGGTTCTAACCTGTTGCCA (site TAGCATACTCG),0.0183
20,TCTTATTCTTGGGTTCTAACCTGTTGCCT (site TCTGATTCTCG),0.062

# From the supplement of paper PMC11208160
